Assay results published in ChEMBL document CHEMBL1140560, “Potent, selective spiropyrrolidine pyrimidinetrione inhibitors of MMP-13” (Bioorg Med Chem Lett, 2007).
“And” between values parts separate entries of the source, which are not always exact repeats. Identical values can stand only once.

What was measured:
Collagenase 3 [1] = target: T1, Collagenase 3 (Homo sapiens, UniProt P45452); assay: Inhibition of MMP13
[2] = Chemical stability assessed as half life in phosphate buffer saline at pH 7.2; format: physicochemical; conditions: phosphate buffered saline
[3] = Half life in rat; format: ADME, organism-based; conditions: in vivo
[4] = plasma Clearance in rat; format: ADME, organism-based
Hamster = assay: Inhibition of human MMP13-induced cartilage damage in hamster at 10 mg/kg, po; format: functional; conditions: Cricetinae
Rattus norvegicus [5] = assay: Toxicity in rat assessed as induction of fibroplasia at 300 mg/kg, bid; format: organism-based; parameters: dose 300 mg/kg; conditions: in vivo
Collagenase 3 [6] = target: T1, Collagenase 3; assay: Inhibition of MMP13-mediated bovine nasal cartilage degradation assessed as hydroxyprole release; format: functional, tissue-based
Rattus norvegicus [7] = assay: Toxicity in rat assessed as induction of fibroplasia at 100 mg/kg, bid; format: organism-based; parameters: dose 100 mg/kg; conditions: in vivo
[8] = Volume of distribution at steady state in rat; format: ADME, organism-based; conditions: in vivo, read-out: Vdss
Rattus norvegicus [9] = assay: Toxicity in rat assessed as induction of fibroplasia at 30 mg/kg, bid; format: organism-based; parameters: dose 30 mg/kg; conditions: in vivo
Rattus norvegicus [10] = assay: Toxicity in rat assessed as induction of fibroplasia at 800 mg/kg, bid; format: organism-based; parameters: dose 800 mg/kg; conditions: in vivo
[11] = Cmax in rat at 800 mg/kg, bid; format: ADME, organism-based; parameters: dose 800 mg/kg; conditions: in vivo
[12] = Cmax in rat at 300 mg/kg, bid; format: ADME, organism-based; parameters: dose 300 mg/kg; conditions: in vivo

CCOCCC1(Oc2ccc(Oc3ccc(-c4nc(-c5cccc(F)c5)co4)cc3)cc2)C(=O)NC(=O)NC1=O
IC50 (Collagenase 3 [1]): 0.35 nM

CCOCCC1(Oc2ccc(Oc3ccc(-c4nc(-c5cccc(C#N)c5)co4)cc3)cc2)C(=O)NC(=O)NC1=O
IC50 (Collagenase 3 [1]): 0.52 nM

CCOCCC1(Oc2ccc(Oc3ccc(-c4nc(-c5ccc(C#N)cc5)co4)cc3)cc2)C(=O)NC(=O)NC1=O
IC50 (Collagenase 3 [1]): 0.43 nM

CCOCCC1(Oc2ccc(Oc3ccc(F)cc3)cc2)C(=O)NC(=O)NC1=O
IC50 (Collagenase 3 [1]): 0.6 nM

CCOCCC1(Oc2ccc(Oc3ccc(-c4nc5ccccc5[nH]4)cc3)cc2)C(=O)NC(=O)NC1=O
IC50 (Collagenase 3 [1]): 0.49 nM

O=C1NC(=O)C2(CCCC(=O)N2c2ccc(Oc3ccc(F)cc3)nc2)C(=O)N1
IC50 (Collagenase 3 [1]): 11.7 nM

O=C1NC(=O)C2(CNC(=O)N2c2ccc(Oc3ccc(F)cc3)nc2)C(=O)N1
IC50 (Collagenase 3 [1]): 15.1 nM

CCOCCC1(Oc2ccc(Oc3ccc(-c4nc5ccc(Cl)cc5[nH]4)cc3)cc2)C(=O)NC(=O)NC1=O
IC50 (Collagenase 3 [1]): 0.96 nM

O=C1NC(=O)C2(CCCN2c2ccc(Oc3ccc(-c4nc5ccc(Cl)cc5[nH]4)cc3)nc2)C(=O)N1
IC50 (Collagenase 3 [1]): 0.1 nM

CN1CC2(C(=O)NC(=O)NC2=O)N(c2ccc(Oc3ccc(F)cc3)nc2)C1=O
IC50 (Collagenase 3 [1]): 12 nM

O=C1NC(=O)C2(CCC(=O)N2c2ccc(Oc3ccc(F)cc3)nc2)C(=O)N1
IC50 (Collagenase 3 [1]): 3.49 nM
half-life [2]: 91.2 h

O=C1NC(=O)C2(CCS(=O)(=O)N2c2ccc(Oc3ccc(F)cc3)nc2)C(=O)N1
IC50 (Collagenase 3 [1]): 138 nM
half-life [2]: 26.4 h

O=C1NC(=O)C2(CCCN2c2ccc(Oc3ccc(-c4nc(-c5ccccc5F)co4)cc3)nc2)C(=O)N1
IC50 (Collagenase 3 [1]): 0.16 nM

CCOCCC1(Oc2ccc(Oc3ccc(-c4nc5ccc(F)cc5[nH]4)cc3)cc2)C(=O)NC(=O)NC1=O
IC50 (Collagenase 3 [1]): 0.4 nM

O=C1NC(=O)C2(CCCN2c2ccc(Oc3ccc(-c4nc(-c5cccc(F)c5)co4)cc3)nc2)C(=O)N1
IC50 (Collagenase 3 [1]): 0.09 nM

O=C1NC(=O)C2(CCCN2c2ccc(Oc3ccc(-c4nc5ccc(F)cc5[nH]4)cc3)nc2)C(=O)N1
IC50 (Collagenase 3 [1]): 0.08 nM

N#Cc1ccc(-c2coc(-c3ccc(Oc4ccc(N5CCCC56C(=O)NC(=O)NC6=O)cn4)cc3)n2)cc1
IC50 (Collagenase 3 [1]): 0.05 nM

N#Cc1cccc(-c2coc(-c3ccc(Oc4ccc(N5CCCC56C(=O)NC(=O)NC6=O)cn4)cc3)n2)c1
IC50 (Collagenase 3 [1]): 0.11 nM

CCOCCC1(Oc2ccc(Oc3ccc(F)cc3)nc2)C(=O)NC(=O)NC1=O
IC50 (Collagenase 3 [1]): 8.9 nM

CCOCCC1(Nc2ccc(Oc3ccc(F)cc3)nc2)C(=O)NC(=O)NC1=O
IC50 (Collagenase 3 [1]): 2.9 nM

O=C1NC(=O)C2(CCCN2c2ccc(Oc3ccc(-c4nc(-c5ccc(F)cc5)co4)cc3)nc2)C(=O)N1
half-life [3]: 4.5 h
clearance [4]: 0.234 L/h/kg
inhibition in vivo at 10 mg/kg (Hamster): > 80%
Activity (Rattus norvegicus [5]): Toxic
IC50 (Collagenase 3 [1]): 0.12 nM
IC50 (Collagenase 3 [6]): 12 nM
Activity (Rattus norvegicus [7]): Non-toxic
Vd [8]: 1.3 L/kg
Activity (Rattus norvegicus [9]): Non-toxic
Activity (Rattus norvegicus [10]): Toxic
Cmax [11]: 52 µg/mL
Cmax [12]: 63 µg/mL

O=C1NC(=O)C2(CCCN2c2ccc(Oc3ccc(-c4nc5ccccc5[nH]4)cc3)nc2)C(=O)N1
IC50 (Collagenase 3 [1]): 0.11 nM

O=C1NC(=O)C2(CCCN2c2ccc(Oc3ccc(F)cc3)nc2)C(=O)N1
IC50 (Collagenase 3 [1]): 1.6 nM and 1.57 nM

CC1(C)CC2(C(=O)NC(=O)NC2=O)N(c2ccc(Oc3ccc(F)cc3)nc2)C1=O
IC50 (Collagenase 3 [1]): 7.33 nM
half-life [2]: 67.2 h

O=C1NC(=O)C2(CCCN2c2ccc(Oc3ccc(Br)cc3)nc2)C(=O)N1
IC50 (Collagenase 3 [1]): 0.6 nM
half-life [2]: > 24000 h
